Results from US20140371165A1, “Identification of NSC23925 Isomers to Reverse Multidrug Resistance in Human Cancers” (priority 2012, published 2014).
Counter-ions that a name gives are not always drawn.

Experiments:
[1] = tested on: MCF-7/MX; test: MTT reversal of BCRP-mediated MDR in MCF-7/MX; format: cell-based, human; settings: non-Pgp expressing drug resistant cell line
Source text: A panel of parental cancer cell line and their daughter resistant cell lines, displaying MDR phenotype were used in this study. Human ovarian cancer cell line SKOV-3, breast cancer cell line MCF-7 and colon cancer cell line SW480, the osteosarcoma cell line U-2OS, KHOS, uterine sarcoma cell line MESSA and its doxorubicin selected drug resistant cell line MESSA/Dx5, non-small cell lung cancer cell line H-69 and its doxorubicin selected drug resistant cell line H-69AR (overexpress MRP1) were obtained from the ATCC (Rockville, Md.). Dr. Efstathios Gonos (Institute of Biological Research & Biotechnology, Athens, Greece) provided the doxorubicin resistant U-2OS R2 (referred in the text below as U-2OSDR), KHOS R2 cell lines. Dr. Erasmus Schneider (Wadsworth Center, Albany) provided the mitoxantrane resistant breast cancer MCF-7/MX (overexpress BCRP) cell line. […]
To evaluate for reversal of Pgp-mediated MDR, SKOV-3TR, MCF-7adr and SW480TR cell lines were seeded into 96-well tissue culture plate at 2,000 cells per well with varying concentrations of chemotherapy drugs and NSC23925b for 6 days. […] Drug cytotoxicity was assessed in vitro using the MTT assay as previously described. Drugs at the concentrations utilized in the MTT assay were performed in the absence of cells to verify no change in absorbance. […]

[2] = tested on: MCF-7adr; test: MTT cytotoxicity assay and reversal of MDR in MCF-7adr; format: cell-based, human
Source text: A panel of parental cancer cell line and their daughter resistant cell lines, displaying MDR phenotype were used in this study. Human ovarian cancer cell line SKOV-3, breast cancer cell line MCF-7 and colon cancer cell line SW480, the osteosarcoma cell line U-2OS, KHOS, uterine sarcoma cell line MESSA and its doxorubicin selected drug resistant cell line MESSA/Dx5, non-small cell lung cancer cell line H-69 and its doxorubicin selected drug resistant cell line H-69AR (overexpress MRP1) were obtained from the ATCC (Rockville, Md.). Dr. Efstathios Gonos (Institute of Biological Research & Biotechnology, Athens, Greece) provided the doxorubicin resistant U-2OS R2 (referred in the text below as U-2OSDR), KHOS R2 cell lines. Dr. Erasmus Schneider (Wadsworth Center, Albany) provided the mitoxantrane resistant breast cancer MCF-7/MX (overexpress BCRP) cell line. All the cell lines were cultured in RPMI 1640 (Invitrogen, Carlsbad, Calif.) supplemented with 10% fetal bovine serum, 100-units/ml penicillin and 100 μg/ml streptomycin (Invitrogen). Cells were incubated at 37° C. in 5% CO2-95% air atmosphere and passaged when near confluent monolayers were achieved using 2% trypsin-EDTA solution. […] The fresh chemotherapy drugs were obtained from the pharmacy at the Massachusetts General Hospital and stored at −20° C.
To evaluate for reversal of Pgp-mediated MDR, SKOV-3TR, MCF-7adr and SW480TR cell lines were seeded into 96-well tissue culture plate at 2,000 cells per well with varying concentrations of chemotherapy drugs and NSC23925b for 6 days. Cell proliferation IC50 (concentration required for 50% inhibition) and MDR reversal IC50 were determined from dose-response curves carried out in triplicate in 96-well plate. Fold of reverse resistance for individual drugs were defined as the IC50 of MDR cells without NSC23925b treatment divided by the IC50 of MDR cells treated with NSC23925b. […] Drug cytotoxicity was assessed in vitro using the MTT assay as previously described. […] Response curves were fitted with use of GraphPad PRISM 4 software (GraphPad Software).
MCF-7adr and SW480TR cells were treated with paclitaxel (FIGS. 2A-B), doxorubicin (FIGS. 2C-D) or mitoxantrane (FIGS. 2E-F) and NSC23925b in RPMI1640 complete media at the indicated concentrations. The relative sensitivity of each line to the indicated drugs was determined by MTT analysis 6 days post-treatment.

[3] = target: T1, Pgp (Homo sapiens, UniProt P08183); test: Calcein AM drug efflux fluorescence microscopy assay (Vybrant multi-drug resistance kit); format: cell-based
T1 construct: multidrug resistant cells expressing high levels of Pgp rapidly extrude non-fluorescent calcein AM from the plasma membrane; endogenous in cells; host or cells: MCF-7adr and SW480TR drug-resistant cells
T1 sequence (P08183 whole entry): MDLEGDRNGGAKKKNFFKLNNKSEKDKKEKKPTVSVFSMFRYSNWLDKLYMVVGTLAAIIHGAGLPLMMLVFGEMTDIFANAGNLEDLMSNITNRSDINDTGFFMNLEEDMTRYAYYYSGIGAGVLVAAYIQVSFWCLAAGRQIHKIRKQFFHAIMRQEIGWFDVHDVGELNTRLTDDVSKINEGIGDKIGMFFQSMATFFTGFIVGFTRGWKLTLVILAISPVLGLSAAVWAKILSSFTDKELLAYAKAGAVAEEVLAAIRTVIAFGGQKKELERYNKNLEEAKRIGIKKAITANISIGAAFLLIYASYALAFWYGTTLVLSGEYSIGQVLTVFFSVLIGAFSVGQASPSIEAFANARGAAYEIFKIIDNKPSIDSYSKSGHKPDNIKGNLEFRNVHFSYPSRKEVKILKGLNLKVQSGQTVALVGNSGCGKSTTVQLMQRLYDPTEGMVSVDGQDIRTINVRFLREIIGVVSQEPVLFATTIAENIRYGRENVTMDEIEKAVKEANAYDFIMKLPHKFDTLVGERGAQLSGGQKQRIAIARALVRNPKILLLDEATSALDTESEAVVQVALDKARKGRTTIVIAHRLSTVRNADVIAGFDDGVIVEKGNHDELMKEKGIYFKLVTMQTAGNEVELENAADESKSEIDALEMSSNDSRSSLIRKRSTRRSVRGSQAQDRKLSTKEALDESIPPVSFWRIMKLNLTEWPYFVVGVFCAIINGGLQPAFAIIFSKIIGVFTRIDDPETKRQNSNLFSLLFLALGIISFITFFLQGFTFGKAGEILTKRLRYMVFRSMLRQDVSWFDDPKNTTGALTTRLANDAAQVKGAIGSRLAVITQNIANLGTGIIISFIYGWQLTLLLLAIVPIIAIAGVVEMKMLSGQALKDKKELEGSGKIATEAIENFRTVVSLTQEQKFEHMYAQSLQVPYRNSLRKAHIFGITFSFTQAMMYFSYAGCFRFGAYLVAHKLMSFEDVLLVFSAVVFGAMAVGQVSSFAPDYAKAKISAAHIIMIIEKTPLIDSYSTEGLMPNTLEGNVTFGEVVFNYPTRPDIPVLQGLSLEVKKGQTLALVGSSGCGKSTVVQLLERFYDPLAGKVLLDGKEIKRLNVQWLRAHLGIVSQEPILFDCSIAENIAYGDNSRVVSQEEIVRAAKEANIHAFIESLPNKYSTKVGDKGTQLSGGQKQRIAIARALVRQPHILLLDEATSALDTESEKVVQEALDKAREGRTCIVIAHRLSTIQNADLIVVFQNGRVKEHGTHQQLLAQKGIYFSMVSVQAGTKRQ
Source text: The Vybrant™ multi-drug resistance assay kit (Invitrogen/Molecular Probes) was used to measure drug efflux properties of different resistant cell lines. This assay utilizes the fluorogenic dye calcein acetoxymethyl ester (calcein AM) as a substrate for efflux activity of Pgp or other membrane pump ABC proteins. Calcein AM is taken up by cells and hydrolyzed by cytoplasmic esterases to fluorescent calcein. Calcein […] is well retained in the cytosol. However, multidrug resistant cells expressing high levels of Pgp rapidly extrude non-fluorescent calcein AM from the plasma membrane, reducing accumulation of fluorescent calcein in the cytosol. Studies were carried out as described. In brief, drug resistant cells (5,000 cells per well) were cultured in 96-well plate for 24 hours. Triplicated cultures of cells were treated with different concentrations of NSC23925b for one hour and then incubated in calcein AM in 100 μl total volume. After 30 minutes, images were acquired by Nikon Eclipse Ti-U fluorescence microscope (Nikon Corp.) equipped with a SPOT RT digital camera (Diagnostic Instruments, Inc., Sterling Heights, Mich.).
The effect of NSC23925b on the uptake and efflux of calcein AM in MCF-7adr and SW480TR was determined. […] The calcein-AM assay was optimized and performed using the Vybrant Multidrug Resistance kit. Cells were seeded at 50,000 cells/well (100 μl of culture medium) in 96-well plate and incubated for 24 hours. MCF-7adr cells in triplicate were treated with NSC23925b for one hour and then incubated in calcein AM for 30 minutes. The cell fluorescence images were acquired by a fluorescence microscope. NSC23925b has a prominent effect on the accumulation of calcein AM in these cells starting at a concentration as low as 1 nM.

For `COc1ccc(-c2cc([C@H](O)[C@H]3CCCCN3)c3ccccc3n2)cc1` [NSC23925b, (2-(4-methoxyphenyl)quinolin-4-yl)(piperidin-2-yl)methanol hydrochloride], the “reversal of BCRP mediated drug resistance” value [1] was “unable to reverse drug resistance”, the “fold-reversal of drug resistance” value ([2]; Doxorubicin, NSC23925b 0.1 μM) was 1.4 fold and the “fold-reversal of drug resistance” value ([2]; Doxorubicin, NSC23925b 0.5 μM) was 4 fold. For the same compound, the “fold-reversal of drug resistance” value ([2]; Doxorubicin, NSC23925b 1 μM) was 15 fold, the “reverse paclitaxel, doxorubicin, and mitoxantrane resistance” value ([2]; MTT 6 days post-treatment) was “able to reverse” and the “fold-reversal of drug resistance” value ([2]; Mitoxantrane, NSC23925b 0.1 μM) was 1.1 fold. For the same compound, the “fold-reversal of drug resistance” value ([2]; Mitoxantrane, NSC23925b 0.5 μM) was 3 fold, the “fold-reversal of drug resistance” value ([2]; Mitoxantrane, NSC23925b 1 μM) was 6 fold and the “fold-reversal of drug resistance” value ([2]; Paclitaxel, NSC23925b 0.1 μM) was 1.3 fold. The “fold-reversal of drug resistance” value ([2]; Paclitaxel, NSC23925b 0.5 μM) was 4 fold, the “fold-reversal of drug resistance” value ([2]; Paclitaxel, NSC23925b 1 μM) was 12 fold and the “lowest concentration with prominent effect on accumulation of calcein AM” value ([3]; MCF-7adr and SW480TR cells) was 1 nM. For the same compound, the “intracellular accumulation of calcein AM” value ([3]; MCF-7adr and SW480TR, 1 h pretreatment, calcein AM 30 minutes) was “increase intracellular accumulation of calcein AM in these cell lines in a dose-dependent manner”, the “near maximal reversal of accumulation deficit” value ([3]; calcein AM, MCF-7adr and SW480TR cells) was 500 nM and the EC50 ([3]; calcein AM, MCF-7adr and SW480TR cells, read-out: Half-maximal reversal of accumulation deficit) was 100 nM.
